Test results as given in patent US11510931B2, “Compositions and methods for treating ophthalmic conditions” (MEDICON PHARMACEUTICALS, INC., priority 2016, dated 2022).
Like-named read-outs stand apart in the source and are kept apart here.

Tests used:
VEGF = VEGF immunohistochemistry in inferior lacrimal gland of rabbits with DED; format: in vivo, rabbit; details: PS 3.5% eye drops three times per day, 1 week, vs vehicle
Description: Rabbits with ConA-induced dry eye disease (n=8 eyes/group) were treated with PS 3.5% eye drops three times per day or vehicle for 1 week. […] Immunohistochemistry for VEGF was performed on tissue sections and VEGF positive vessels were counted. PS reduced the number of VEGF positive cells by 73% bringing it to nearly normal values (the level in naïve rabbits)

[1] = Ocular biodistribution of PS after topical eye drops in New Zealand white rabbits (HPLC); format: in vivo, rabbit
Description: Results: The above PS formulation was administered topically as eye drops to the eyes of New Zealand white rabbits. The levels of PS in ocular tissues 1 h and 3 h later were determined by HPLC. The Table below summarizes the findings:
Results: The above PS formulation was administered topically as eye drops to the eyes of New Zealand white rabbits. The levels of PS in ocular tissues at 2 h later were determined by HPLC. The table below summarizes the findings.
Results: PS in this formulation was administered topically to the eyes of New Zealand white rabbits and its biodistribution was determined as above. The Table below summarizes the findings.
Results: PS in this formulation was administered topically as eye drops to the eyes of New Zealand white rabbits. The biodistribution of PS in ocular tissues at 3 h and 6 h was determined by HPLC. The Table below summarizes the findings.
Biodistribution of PS after topical administration: PS formulated in nanoparticles as above was administered topically as eye drops to New Zealand white rabbits. The biodistribution of PS in ocular tissues at the indicated time points post administration was determined by HPLC. The Table below summarizes the findings.
Biodistribution of PS after topical administration: PS in the formulations was administered topically as eye drops to the eyes of New Zealand white rabbits. The levels of PS in ocular tissues at 0.5 h, 1 h and 3 h were determined by HPLC. The Table below summarizes the findings.
To assess the contribution of the foregoing formulations to the PK/biodistribution of PS in the ocular tissues, a solution of PS in pure propylene glycol (PG) was studied. PG is well tolerated by the eye. A 3.5% PS solution (in PG) as eye drops was administered topically to the eyes of New Zealand white rabbits and its 1-hour biodistribution was determined by HPLC. The Table summarizes the findings.

[2] = 0.5 h, topical, 0.4% gellan gum in-situ gel, 2.4-3% PS
[3] = 1 h, topical eye drops, 3.5% PS/16% Vitamin E TPGS/mannitol/boric acid
[4] = 1 h, topical, 0.4% gellan gum in-situ gel, 2.4-3% PS
[5] = 1 h, topical, sodium alginate/Tween 80 in-situ gel, 3% PS
[6] = 2 h, topical, 0.5% gellan gum in-situ gel, 2.4~3% PS
[7] = 3 h, topical eye drops, 3.5% PS/16% Vitamin E TPGS/mannitol/boric acid
[8] = 3 h, topical, 0.4% gellan gum in-situ gel, 2.4-3% PS
[9] = 3 h, topical, Poloxamer 407 in-situ gel, 5.4% PS
[10] = 3 h, topical, sodium alginate/Tween 80 in-situ gel, 3% PS
[11] = 5 h, topical, 0.4% gellan gum in-situ gel, 2.4-3% PS
[12] = 5 h, topical, sodium alginate/Tween 80 in-situ gel, 3% PS
[13] = 8 h, topical, 0.4% gellan gum in-situ gel, 2.4-3% PS

CCOP(=O)(OCC)OCCCCOC(=O)CC1=C(C)/C(=C/c2ccc([S+](C)[O-])cc2)c2ccc(F)cc21 (centres unmarked) [PS, phosphosulindac]
reduction of the number of VEGF positive cells (VEGF): 73%
PS in Aqueous humor [1, 2]: 0.6 µM
PS in Conjunctiva [1, 2]: 37.7 µM
PS in Cornea [1, 2]: 24.3 µM
PS in Aqueous humor [1, 3]: 2.3 µM
PS in Choroid [1, 3]: 3.2 µM
PS in Conjunctiva [1, 3]: 9.3 µM
PS in Cornea [1, 3]: 6.9 µM
PS in Iris [1, 3]: 0.7 µM
PS in Lacrimal gland [1, 3]: 0.1 µM
PS in Lens [1, 3]: 1.8 µM
PS in Retina [1, 3]: 2.7 µM
PS in Sclera [1, 3]: 2.3 µM
PS in Vitreous body [1, 3]: 3.6 µM
PS in Aqueous humor [1, 4]: 0.4 µM
PS in Conjunctiva [1, 4]: 20.8 µM
PS in Cornea [1, 4]: 50.8 µM
PS in Aqueous humor [1, 5]: 0.4 µM
PS in Conjunctiva [1, 5]: 4.9 µM
PS in Cornea [1, 5]: 17.8 µM
PS in Aqueous humor [1, 6]: 1.2 µM
PS in Conjunctiva [1, 6]: 24.1 µM
PS in Cornea [1, 6]: 72.0 µM
PS in Aqueous humor [1, 7]: 0.1 µM
PS in Choroid [1, 7]: 0.2 µM
PS in Conjunctiva [1, 7]: 0.5 µM
PS in Cornea [1, 7]: 0.8 µM
PS in Iris [1, 7]: 0.9 µM
PS in Lacrimal gland [1, 7]: 0.5 µM
PS in Lens [1, 7]: 0.1 µM
PS in Retina [1, 7]: 0.2 µM
PS in Sclera [1, 7]: 0.2 µM
PS in Conjunctiva [1, 8]: 0.7 µM
PS in Cornea [1, 8]: 1.5 µM
PS in Choroid [1, 9]: 0.9 µM
PS in Cornea [1, 9]: 45.1 µM
PS in Aqueous humor [1, 10]: 0.3 µM
PS in Conjunctiva [1, 10]: 2.1 µM
PS in Cornea [1, 10]: 5.0 µM
PS in Conjunctiva [1, 11]: 1.1 µM
PS in Cornea [1, 11]: 1.1 µM
PS in Conjunctiva [1, 12]: 2.3 µM
PS in Cornea [1, 12]: 1.0 µM
PS in Conjunctiva [1, 13]: 0.7 µM
PS in Cornea [1, 13]: 1.6 µM
PS in Conjunctiva ([1]; 8 h, topical, sodium alginate/Tween 80 in-situ gel, 3% PS): 1.3 µM
concentration at 5 h ([1]; New Zealand white, rabbit, aqueous humor, topical, 3 % PS, 5 h, topical, sodium alginate/Tween 80 in-situ gel, 3% PS, read-out: PS in Aqueous humor): 0 nM
concentration at 8 h ([1]; New Zealand white, rabbit, aqueous humor, topical, 3 % PS, 8 h, topical, sodium alginate/Tween 80 in-situ gel, 3% PS, read-out: PS in Aqueous humor): 0 nM
concentration at 1 h ([1]; New Zealand white, rabbit, aqueous humor, topical, 3.5 % PS solution (eye drops), 1 h, topical eye drops, 3.5% PS solution in propylene glycol, read-out: PS in Aqueous humor): 700 nM
concentration at 3 h ([1]; New Zealand white, rabbit, aqueous humor, topical, 5.4 % PS, 3 h, topical, Poloxamer 407 in-situ gel, 5.4% PS, read-out: PS in Aqueous humor): 300 nM
concentration at 6 h ([1]; New Zealand white, rabbit, aqueous humor, topical, 5.4 % PS, 6 h, topical, Poloxamer 407 in-situ gel, 5.4% PS, read-out: PS in Aqueous humor): 300 nM
concentration at 3 h ([1]; New Zealand white, rabbit, aqueous humor, topical, 3 h, topical, 0.4% gellan gum in-situ gel, 2.4-3% PS, read-out: PS in Aqueous humor): 0 nM
concentration at 5 h ([1]; New Zealand white, rabbit, aqueous humor, topical, 5 h, topical, 0.4% gellan gum in-situ gel, 2.4-3% PS, read-out: PS in Aqueous humor): 0 nM
